Results on 27 molecules are retold here after patent US8134015B2, “Compound inhibiting in vivo phosphorous transport and medicine containing the same” (Kyowa Hakko Kirin Co., Ltd., priority 2003, dated 2012).

The first test addresses T1, rat NaPi-2b (Rattus norvegicus, UniProt Q9JJ09).
T1 construct: expressed in transfected cells; host or cells: Xenopus oocytes injected with cRNA
T1 sequence (Q9JJ09 1-695): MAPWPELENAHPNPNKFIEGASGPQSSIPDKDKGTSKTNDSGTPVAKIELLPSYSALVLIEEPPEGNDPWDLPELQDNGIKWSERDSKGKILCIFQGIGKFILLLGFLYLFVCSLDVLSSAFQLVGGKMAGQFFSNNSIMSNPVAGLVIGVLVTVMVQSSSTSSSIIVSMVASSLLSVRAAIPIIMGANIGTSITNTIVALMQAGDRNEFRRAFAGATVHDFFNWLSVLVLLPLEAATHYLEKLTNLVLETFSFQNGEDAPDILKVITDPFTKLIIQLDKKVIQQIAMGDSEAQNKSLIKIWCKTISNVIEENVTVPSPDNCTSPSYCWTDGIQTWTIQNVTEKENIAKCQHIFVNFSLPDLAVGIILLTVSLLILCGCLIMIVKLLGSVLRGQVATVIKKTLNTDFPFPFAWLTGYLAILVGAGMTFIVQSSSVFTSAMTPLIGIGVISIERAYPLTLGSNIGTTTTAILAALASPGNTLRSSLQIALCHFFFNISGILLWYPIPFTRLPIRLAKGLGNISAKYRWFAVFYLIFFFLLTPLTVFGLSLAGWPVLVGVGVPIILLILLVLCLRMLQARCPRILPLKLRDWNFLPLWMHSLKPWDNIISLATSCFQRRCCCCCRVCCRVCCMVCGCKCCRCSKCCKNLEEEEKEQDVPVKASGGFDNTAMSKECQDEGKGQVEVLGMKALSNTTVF
Put plainly: Sodium-dependent phosphate uptake of Xenopus oocytes which expressed NaPi-2b (32P). It counts as cell-based. The settings on record: Xenopus oocytes expressing rat NaPi-2b, 32P radioactive phosphorus; read-out: IC50 (phosphate uptake inhibitory activity). The essentials:
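Steps: rat NaPi-2b cDNA cloned from small intestine; cRNA made and injected into oocytes; 2-day expression; 32P phosphate uptake with compound; % inhibition at 300/100 μM taken from one curve.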
As for `Cc1csc(NC(=O)c2cccc(CN3CCC(N4CCCCC4)CC3)c2)c1C(=O)N/N=C/c1cccc(F)c1` [Compound 572, 3-[1,4′]Bipiperidinyl-1′-ylmethyl-N-[3-(3-fluoro-benzylidene-hydrazinocarbonyl)-4-methyl-thiophen-2-yl]-benzamide], the IC50 amounted to 4.12 µM. Take `COc1ccc(/C=N/NC(=O)c2cc3ccccc3cc2NC(=O)c2cccc(CN(CC(C)O)CC(C)O)c2)cc1` (stereo not drawn) [Compound 963, 3-{[Bis-(2-hydroxy-propyl)-amino]-methyl}-N-[3-(4-methoxy-benzylidene-hydrazinocarbonyl)-naphthalen-2-yl]-benzamide]: the IC50 is less than 1 µM. Take `CCN(CC)CCN(C)Cc1ccc(C(=O)Nc2ccc(Br)cc2C(=O)N/N=C/c2ccc(C)c(C)c2)cc1` [Compound 280, N-[4-Bromo-2-(3,4-dimethyl-benzylidene-hydrazinocarbonyl)-phenyl]-4-{[(2-diethylamino-ethyl)-methyl-amino]-methyl}-benzamide]: the IC50 was determined as 0.78 µM.

`COc1ccccc1/C=C/C=N/NC(=O)c1cc(Br)ccc1NC(=O)c1cccnc1` [Compound 352, N-{4-Bromo-2-[3-(2-methoxy-phenyl)-allylidene-hydrazinocarbonyl]-phenyl}-nicotinamide]: the IC50 was 13 µM.

In the case of `Cc1ccc(/C=N/NC(=O)c2cc(Br)ccc2NC(=O)c2ccccn2)cc1C` [Compound 499, Pyridin-2-carboxylic acid [4-bromo-2-(3,4-dimethyl-benzylidene-hydrazinocarbonyl)-phenyl]-amide], the IC50 came to 0.98 µM. For the molecule `O=C(Nc1ccc(Br)cc1C(=O)N/N=C/c1cccc(F)c1)c1ccc(CSCCCO)cc1` [Compound 277, N-[4-Bromo-2-(3-fluoro-benzylidene-hydrazinocarbonyl)-phenyl]-4-(3-hydroxy-propylsulfanylmethyl)-benzamide], the IC50 came out at 1.6 µM.

As to `CN(CCO)Cc1cccc(C(=O)Nc2ccc(Cl)cc2C(=O)N/N=C/c2ccc(Cl)c(C(F)(F)F)c2)c1` [Compound 399, N-[4-Chloro-2-(4-chloro-3-trifluoromethyl-benzylidene-hydrazinocarbonyl)-phenyl]-3-{[(2-hydroxy-ethyl)-methyl-amino]-methyl}-benzamide], the 50% inhibitory concentration (IC50) stood at 3.67 µM.

Turning to `O=C(Nc1ccc(I)cc1C(=O)N/N=C/c1ccc(O)cc1)c1cccc(CN2CCC(N3CCCCC3)CC2)c1` [Compound 491, 3-[1,4′]Bipiperidinyl-1′-ylmethyl-N-[2-(4-hydroxy-benzylidene-hydrazinocarbonyl)-4-iodo-phenyl]-benzamide], the IC50 is less than 3 µM. For the molecule `O=C(Nc1sc2c(c1C(=O)N/N=C/c1ccc(F)cc1)CCCC2)c1cccc(CN2CCC(N3CCCCC3)CC2)c1` [Compound 617, 3-[1,4′]Bipiperidinyl-1′-ylmethyl-N-[3-(4-fluoro-benzylidene-hydrazinocarbonyl)-4,5,6,7-tetrahydro-benzo[b]thiophen-2-yl]-benzamide], the IC50 worked out at 3.68 µM. Turning to `Cc1cccc(/C=N/NC(=O)c2cc(Br)ccc2NC(=O)c2ccc(CSCCO)cc2)c1` [Compound 263, N-[4-Bromo-2-(3-methyl-benzylidene-hydrazinocarbonyl)-phenyl]-4-(2-hydroxy-ethylsulfanylmethyl)-benzamide], the IC50 was less than 1 µM. On the same count and under the same terms, next, `COc1cccc(/C=N/NC(=O)c2cc(Br)ccc2NC(=O)c2ccc(CN3CCN(CC(=O)N4CCOCC4)CC3)cc2)c1` [Compound 732, N-[4-Bromo-2-(3-methoxy-benzylidene-hydrazinocarbonyl)-phenyl]-4-[4-(2-morpholin-4-yl-2-oxo-ethyl)-piperazin-1-ylmethyl]-benzamide]: 29.4 µM; `CC(O)CN(Cc1cccc(C(=O)Nc2cc3ccccc3cc2C(=O)N/N=C/c2cccc(F)c2)c1)CC(C)O` (stereo not drawn) [Compound 959, 3-{[Bis-(2-hydroxy-propyl)-amino]-methyl}-N-[3-(3-fluoro-benzylidene-hydrazinocarbonyl)-naphthalen-2-yl]-benzamide]: less than 1 µM; `CCN1CC(NCc2ccc(-c3nc4ccc(Br)cc4c(=O)n3/N=C/c3cccc(F)c3)cc2)CN1CC` [Compound 751, 6-Bromo-2-{4-[(1,2-diethyl-pyrazolidin-4-ylamino)-methyl]-phenyl}-3-[(3-fluoro-benzylidene)-amino]-3H-quinazolin-4-one]: 13.1 µM. In the case of `CCN(CC)CCN(C)Cc1cccc(C(=O)Nc2ccc(Cl)cc2C(=O)N/N=C/c2ccc(C)c(C)c2)c1` [Compound 383, N-[4-Chloro-2-(3,4-dimethyl-benzylidene-hydrazinocarbonyl)-phenyl]-3-{[(2-diethylamino-ethyl)-methyl-amino]-methyl}-benzamide], the IC50 is 1.98 µM. As to `COc1ccc(/C=N/NC(=O)c2cc(N3CCCCC3)ccc2NC(=O)c2cccc(CNCCN(CCO)CCO)c2)cc1` [Compound 915, 3-({2-[Bis-(2-hydroxy-ethyl)-amino]-ethylamino}-methyl)-N-[2-(4-methoxy-benzylidene-hydrazinocarbonyl)-4-piperidin-1-yl-phenyl]-benzamide], the IC50 is 8.15 µM. On the same count and under the same terms, the figure for `Cc1cccc(/C=N/NC(=O)c2cc(Cl)ccc2NC(=O)c2cccc(CN(C)CCO)c2)c1` [Compound 396, N-[4-Chloro-2-(3-methyl-benzylidene-hydrazinocarbonyl)-phenyl]-3-{[(2-hydroxy-ethyl)-methyl-amino]-methyl}-benzamide] is 8.19 µM; for `COc1ccc(NC(=O)c2cccc(CSCC(O)CO)c2)c(C(=O)N/N=C/c2ccc(C)cc2)c1` (stereo not drawn) [Compound 1018, 3-(2,3-Dihydroxy-propylsulfanylmethyl)-N-[4-methoxy-2-(4-methyl-benzylidene-hydrazinocarbonyl)-phenyl]-benzamide] it is 0.92 µM; for `Cc1ccc(/C=N/NC(=O)c2cc3ccccc3cc2NC(=O)c2cccc(CN(CC(C)O)CC(C)O)c2)cc1` (stereo not drawn) [Compound 960, 3-{[Bis-(2-hydroxy-propyl)-amino]-methyl}-N-[3-(4-methyl-benzylidene-hydrazinocarbonyl)-naphthalen-2-yl]-benzamide] it is 1.12 µM. Still for that read-out and setting: next, `O=C(Nc1ccc(Br)cc1C(=O)N/N=C/c1ccc(F)cc1)c1ccncc1` [Compound 167, N-[4-Bromo-2-(4-fluoro-benzylidene-hydrazinocarbonyl)-phenyl]-isonicotinamide]: 30.2 µM; `Cc1ccc(/C=N/NC(=O)c2cc(Cl)ccc2NC(=O)c2cccc(CSc3nc[nH]n3)c2)cc1` [Compound 392, N-[4-Chloro-2-(4-methyl-benzylidene-hydrazinocarbonyl)-phenyl]-3-(1H-[1,2,4]triazol-3-ylsulfanylmethyl)-benzamide]: 1.42 µM; `CC(O)CN(Cc1cccc(C(=O)Nc2sccc2C(=O)N/N=C/c2ccc(F)cc2)c1)CC(C)O` (stereo not drawn) [Compound 672, 3-{[Bis-(2-hydroxy-propyl)-amino]-methyl}-N-[3-(4-fluoro-benzylidene-hydrazinocarbonyl)-thiophen-2-yl]-benzamide]: 31.2 µM. Same read-out and setting: the figure for `COc1ccc(C(=O)Nc2ccc(Br)cc2C(=O)N/N=C/C=C/c2ccccc2)cc1OC` [Compound 13, N-[4-Bromo-2-(3-phenyl-allylidene-hydrazinocarbonyl)-phenyl]-3,4-dimethoxy-benzamide] is 9.22 µM; for `O=C(Nc1ccc(Cl)cc1C(=O)N/N=C/c1ccc(F)cc1)c1ccncc1` [Compound 190, N-[4-Chloro-2-(4-fluoro-benzylidene-hydrazinocarbonyl)-phenyl]-isonicotinamide] it is 20.3 µM. For the molecule `CCN(CC)CCN(C)Cc1cccc(C(=O)Nc2ccc(OCC3CCCCC3)cc2C(=O)N/N=C/c2ccc(Cl)c(C(F)(F)F)c2)c1` [Compound 1049, N-[2-(4-Chloro-3-trifluoromethyl-benzylidene-hydrazinocarbonyl)-4-cyclohexylmethoxy-phenyl]-3-{[(2-diethylamino-ethyl)-methyl-amino]-methyl}-benzamide], the IC50 is less than 1 µM. For the molecule `Cc1ccc(/C=N/NC(=O)c2cc(Br)ccc2NC(=O)c2ccccn2)cc1` [Compound 498, Pyridin-2-carboxylic acid [4-bromo-2-(4-methyl-benzylidene-hydrazinocarbonyl)-phenyl]-amide], the IC50 turned out to be 0.6 µM.

Still in this test, the particulars now being: phosphate uptake, oocytes expressing rat NaPi-2b; 300 μM, determined from inhibition curve.
Molecule `Cc1ccc(/C=N/NC(=O)c2cc(Br)ccc2NC(=O)c2ccc(CNCCCN(C)c3ccccc3)cc2)cc1` [Compound 758, N-[4-Bromo-2-(4-methyl-benzylidene-hydrazinocarbonyl)-phenyl]-4-{[3-(methyl-phenyl-amino)-propylamino]-methyl}-benzamide] came in with an inhibition at 300 µM of 58.2%.

For the molecule `O=C(Nc1ccccc1C(=O)N/N=C/C=C/c1ccccc1)c1ccccc1` [Compound 235, N-[2-(3-Phenyl-allylidene-hydrazinocarbonyl)-phenyl]-benzamide], the inhibition at 300 µM was found to be 47.9%.

The IC50 is the concentration at which inhibition is half-maximal. One may read the inhibition as how much of the control response was suppressed. Low values mean a response near the control, high ones a response far below the control.
